Assays:
[1] = Comparative Rat Pharmacokinetics Experiments (plasma concentrations over time after oral gavage); details: male, Sprague-Dawley, 5 mg/kg
Protocol: (§1) In this experiment, male Sprague-Dawley rats (200-250 grams) implanted with jugular vein cannulas (JVC) were obtained from Charles River Laboratories. Each compound was administered to two rats or by oral gavage. The oral dose was administered as a solution in 0.5% methycellulose with a dose volume of 10 mL/kg. The amount of each compound administered was 5 mg/kg body weight. Blood samples (0.25 mL) were collected at multiple time points from 0-24 hours and placed into tubes containing lithium heparin (Becton Dickinson, Microtainer®). The blood samples were then centrifuged at 12000 rpm for 10 minutes). Plasma aliquots were taken for determination of compound plasma concentrations (pharmacokinetic analysis). The plasma samples were frozen at −70° C. until analysis.
(§2) The rat plasma samples were analyzed for compound concentrations by LC/MS/MS (Applied Biosystems API 4000 mass spectrometer). In brief, compound standard curves were prepared in control rat plasma with a dynamic range of 1.0-2000 ng/mL. Aliquots (0.02 mL) of both standards and samples Were placed into Marsh™ tubes in a 96-well block. Proteins were precipitated by addition of 0.1 mL acetonitrile containing 0.1 μg/mL of internal standard. The 96-well blocks were vortexed and then centrifuged at 3000 rpm for 5 minutes. The resulting supernatant was removed and placed into a new 96-well block and taken to dryness at 50° C. under a nitrogen stream. Residues were reconstituted in mobile phase (60% 5 mM ammonium acetate and 40% acetonitrile). Aliquots (0.01 mL) were then injected onto the LC/MS/MS for analysis.

[2] = rat, in vivo, po, 5 mg/kg
Protocol: as §1, §2

DPP-IV = target: T1, DPP-IV (Homo sapiens, UniProt P27487); assay: In vitro Assay for DPP-IV Inhibition; format: biochemical; details: read-out: IC50 against DPP-IV
T1 construct: purchased MP Biomedicals, Livermore, Calif
Protocol: 150 μL of an enzyme-substrate solution is pipetted into microtiter wells of a polystyrene 96-well plate, and maintained at 4° C. The enzyme-substrate solution comprises 50 μM Gly-Pro-4-methoxy-β-naphthylamide hydrochloride in 50 mM Tris assay buffer pH 7.3 containing 0.1M sodium chloride, 0.1% (v/v) Triton and 50 μU/mL DPP-IV (MP Biomedicals, Livermore, Calif.; DPP-IV 5 mU/mL stock). 5 μL per well of the compound of formula (I) is added, bringing the final concentrations of the formula (I) compound to between 3 μM and 10 nM per well.
Controls. Enzyme is omitted from four (4) wells, as a reagent blank. 5 μL of 3 mM Diprotin A (Bachem Bioscience, Inc.; King of Prussia, Pa.) is added to four wells as a positive quality control, providing a final Diprotin A concentration of 100 μM. To measure total enzyme activity (i.e., a negative control), without the influence of any compounds of formula (I), 5 μL of distilled water is added to four wells.
The entire assay is incubated overnight (between 14 and 18 hours) at 37° C. […]

T1 sequence (P27487 whole entry, species assumed): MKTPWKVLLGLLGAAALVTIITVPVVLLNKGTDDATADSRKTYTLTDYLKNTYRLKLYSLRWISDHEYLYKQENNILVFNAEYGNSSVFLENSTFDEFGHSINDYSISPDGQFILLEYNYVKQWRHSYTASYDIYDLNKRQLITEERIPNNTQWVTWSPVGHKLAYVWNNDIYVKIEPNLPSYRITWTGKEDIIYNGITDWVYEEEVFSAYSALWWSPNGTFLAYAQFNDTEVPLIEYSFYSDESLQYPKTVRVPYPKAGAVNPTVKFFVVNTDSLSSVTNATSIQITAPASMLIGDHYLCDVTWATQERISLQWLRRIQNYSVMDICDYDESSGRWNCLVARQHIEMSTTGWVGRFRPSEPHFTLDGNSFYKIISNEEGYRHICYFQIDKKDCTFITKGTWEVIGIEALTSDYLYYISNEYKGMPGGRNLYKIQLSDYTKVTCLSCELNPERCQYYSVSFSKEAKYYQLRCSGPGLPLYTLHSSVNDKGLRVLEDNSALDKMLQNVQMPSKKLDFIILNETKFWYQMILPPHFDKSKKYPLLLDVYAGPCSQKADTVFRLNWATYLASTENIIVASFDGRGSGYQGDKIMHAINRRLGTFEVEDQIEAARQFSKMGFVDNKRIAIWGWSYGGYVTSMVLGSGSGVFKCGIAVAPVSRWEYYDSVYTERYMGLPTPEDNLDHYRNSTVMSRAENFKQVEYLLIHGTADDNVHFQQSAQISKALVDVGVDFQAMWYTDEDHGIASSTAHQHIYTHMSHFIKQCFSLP

O=C([C@@H]1C[C@H](N2CCN(c3ncccn3)CC2)CN1)N1CCC(F)(F)C1 [CPD 113, (3,3-Difluoropyrrolidin-1-yl)-((2S,4S)-4-(4-(pyrimidin-2-yl)piperazin-1-yl)pyrrolidin-2-yl)-methanone]
concentration at 0.25 h [1]: 1410 ng/mL | concentration at 0.5 h [1]: 1320 ng/mL | concentration at 0.75 h [1]: 979 ng/mL | concentration at 1 h [1]: 768 ng/mL | concentration at 2 h [1]: 289 ng/mL | concentration at 4 h [1]: 97.8 ng/mL | concentration at 6 h [1]: 49.3 ng/mL | concentration at 8 h [1]: 32.8 ng/mL | plasma concentrations achieved and maintained, compared with the comparator compound [2]: significantly higher plasma concentrations

N#Cc1nccnc1N1CCN([C@@H]2CN[C@H](C(=O)N3C[C@@H](F)[C@@H](F)C3)C2)CC1 (relative stereo) [Example 10, ((2S,4S)-4-(4-(3-Cyanopyrazin-2-yl)piperazin-1-yl)pyrrolidin-2-yl)-((3R*,4S*)-3,4-difluoropyrrolidin-1-yl)-methanone]
IC50 (DPP-IV): 3.5 nM
